These compounds were tested against CC chemokine receptor 2 (CCR2) (Homo sapiens, UniProt P41597).
Chain of CC chemokine receptor 2 (CCR2) (P41597 whole entry): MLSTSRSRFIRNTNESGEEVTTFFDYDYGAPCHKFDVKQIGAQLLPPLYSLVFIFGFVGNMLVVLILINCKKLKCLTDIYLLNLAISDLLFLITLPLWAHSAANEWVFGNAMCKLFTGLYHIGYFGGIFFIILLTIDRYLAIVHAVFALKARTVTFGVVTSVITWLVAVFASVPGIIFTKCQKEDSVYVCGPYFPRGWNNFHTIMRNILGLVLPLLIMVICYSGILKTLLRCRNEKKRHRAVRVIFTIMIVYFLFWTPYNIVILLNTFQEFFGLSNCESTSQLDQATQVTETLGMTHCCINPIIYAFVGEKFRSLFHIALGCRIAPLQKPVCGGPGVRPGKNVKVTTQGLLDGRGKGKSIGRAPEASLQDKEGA

Structure (SMILES)	Ki
COc1ccc(S(=O)(=O)Nc2cncc(N3CCOCC3)n2)cc1 [compound 13, LUF8070]	3.26 µM
O=S(=O)(Nc1cncc(N2CCCCC2)n1)c1ccc(Cl)c(C(F)(F)F)c1 [compound 20, LUF8100]	5.95 µM
O=S(=O)(Nc1cncc(N2CCOCC2)n1)c1ccc(Cl)c(Cl)c1 [compound 17, LUF8075]	1.32 µM

From article PMC12648652, “Combining AlphaFold with Focused Virtual Library Design in the Development of Novel CCR2 and CCR5 Antagonists” (Journal of Chemical Information and Modeling, 2025)
